Earlier results on eight compounds are cited in US7608286B2, “Phyto-nutraceutical synergistic composition for hyperlipedemic condition” (priority 2006, dated 2009).

Data set [1] has as its system bacterial resistance mechanism (multidrug pump). The conditions noted are these: in the presence of 5′-MHC.
The subject of data set [2] is rats. The note with it: rat, in vivo.
Data set [3] addresses T1, lanosterol 14alpha -demethylase (Homo sapiens, UniProt Q16850).
T1 sequence (Q16850 1-509): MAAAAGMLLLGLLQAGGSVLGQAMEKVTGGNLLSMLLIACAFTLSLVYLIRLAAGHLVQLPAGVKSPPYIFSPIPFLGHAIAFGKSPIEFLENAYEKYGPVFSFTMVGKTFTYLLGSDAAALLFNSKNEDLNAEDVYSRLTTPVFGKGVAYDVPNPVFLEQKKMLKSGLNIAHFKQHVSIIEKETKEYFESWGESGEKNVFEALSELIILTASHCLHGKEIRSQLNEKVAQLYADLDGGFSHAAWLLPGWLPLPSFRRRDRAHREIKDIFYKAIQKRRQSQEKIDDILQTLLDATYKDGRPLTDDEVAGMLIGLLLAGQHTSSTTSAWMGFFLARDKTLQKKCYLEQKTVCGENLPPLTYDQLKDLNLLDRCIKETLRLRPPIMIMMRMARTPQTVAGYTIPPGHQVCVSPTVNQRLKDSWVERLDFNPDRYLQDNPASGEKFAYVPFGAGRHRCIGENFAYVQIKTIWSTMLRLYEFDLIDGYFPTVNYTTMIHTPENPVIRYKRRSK

Data set [4] deals with participants having low blood concentrations of HDL-C. The conditions noted are these: time-release.
Data set [5] relates to normolipidemic and hyperlipidemic patients with low HDL-C levels. The note with it: low dose (1.5 g/d).
For data set [6], the system named is cultured human liver (HepG2) cells.
Data set [7] concerns apolipoprotein E-null mice. The conditions noted are these: evolving versus established.

`COc1cc([C@H]2Oc3cc(-c4cc(=O)c5c(O)cc(O)cc5o4)cc(OC)c3O[C@@H]2CO)ccc1O` (racemic) [5′-MHC, 5′-methoxyhydnocarpin]: the “accumulation of berberine in the cells” value in data set [1] is “strong increase”.
Regarding `Nc1ncnc2c1ncn2C[C@@H](O)[C@@H](O)C(=O)O` [Eritadenine], in data set [2], the “S-adenosylmethionine (SAM):S-adenosylhomocysteine (SAH) ratio in the liver” value was “significantly decreased”, the “phosphatidylcholine (PC):phosphatidylethanolamine ratio in liver microsomes” value is listed as “significantly decreased” and the plasma cholesterol concentration result is given as “significantly decreased”.
In the case of `C/C(C=O)=C\CC[C@@H](C)[C@H]1CC[C@@]2(C)C3=CC[C@H]4C(C)(C)C(=O)CC[C@]4(C)C3=CC[C@]12C` [ganoderal A], in data set [3], the “cholesterol biosynthesis / lanosterol 14alpha -demethylase” value is “inhibit cholesterol biosynthesis”.
`C/C(=C\CC[C@@H](C)[C@H]1CC[C@@]2(C)C3=CC[C@H]4C(C)(C)C(=O)CC[C@]4(C)C3=CC[C@]12C)CO` [ganoderol A]: in data set [3], the “cholesterol biosynthesis / lanosterol 14alpha -demethylase” value is “inhibit cholesterol biosynthesis”.
Regarding `C/C(=C\CC[C@@H](C)[C@H]1CC[C@@]2(C)C3=CC[C@H]4C(C)(C)[C@@H](O)CC[C@]4(C)C3=CC[C@]12C)CO` [ganoderol B], the “cholesterol biosynthesis / lanosterol 14alpha -demethylase” value in data set [3] is “inhibit cholesterol biosynthesis”.
Turning to `O=C(O)c1cccnc1` [nicotinic acid, Nicotinic acid], in data set [4], the “change of total cholesterol concentrations” value was -20 mg/dL, the “decrease of low-density lipoprotein cholesterol levels” value was 13%, the “decrease of the ratio of total cholesterol to HDL-C” value is 25% and the “decrease of total cholesterol concentrations” value was 9%. Moreover, in data set [4], the “decrease of triglyceride levels” value is 20%, the “mean change of HDL-C levels” value is on record as “+6 mg/dl” and the “mean increase of HDL-C levels” value is given as 18%. In data set [5], the “average increase in HDL-C levels” value was 20% and the triglyceride levels result is recorded as “significantly lowers”.
Regarding (−)-epigallocatechin gallate [EGCG], in data set [6], the “cellular cholesterol concentration lowered” value was 28%, the cellular cholesterol synthesis result is recorded as “significantly lowered” and the “increase of LDL receptor binding activity” value was 3 fold. Besides, the atherosclerotic lesions entry in data set [7] is “differentially reduces evolving atherosclerotic lesions without influencing established atherosclerosis”.
In the case of ganoderic acid, the “cholesterol biosynthesis / lanosterol 14alpha -demethylase” value in data set [3] was “inhibit cholesterol biosynthesis”.
